From patent US7208572B2, “Leptin-related peptides” (Albany Medical College, priority 1998, dated 2007)
Marks after values point to notes of the source that are not given here. Square brackets hold non-standard residues; d marks the D form. Ends that are not written are not given here.

Key:
Type in all cases: in vivo, mouse
[1] = Epitope mapping: body weight and food intake in female C57BL/6J ob/ob mice, 7 daily ip injections; conditions: 7 days; for Cumulative food intake / Percent heavier (+) or lighter (−) than initial weight / Weight gain (+) or loss (−): 1 mg/day ip
Description: Animal procedures. Feeding and weighing schedules, as well as peptide administration protocols, are as described in EXAMPLE 8, supra.
Statistical analysis. Changes in body weight and differences in food intake between peptide-treated and vehicle-injected control mice were analyzed by analysis of variance (ANOVA) and considered significant when P<0.05.
Female ob/ob mice (n=6 per group) were given a single ip injection of 0.2 ml of vehicle (PBS, pH 7.2) or leptin-related synthetic peptide amide in 0.2 ml PBS for 7 consecutive days. Daily changes in body weight compared to pretreatment weights in both vehicle-injected control and peptide-treated mice are shown in FIG. 4. […] There was no evidence of weight loss in response to peptide treatment.

[2] = 12-day ip study of body weight gain and food intake in female C57BL/6J ob/ob mice; conditions: 1 mg/day ip, 12 days
Description: The graphs show changes in body weight (expressed as percent of initial weight) and food intake (expressed as mg/gm body weight/mouse) for mice given vehicle or synthetic leptin-related peptide OB3 (1 mg/day, ip, 12 days).
Mice were injected with leptin-related synthetic peptide (1 mg/g body weight, ip) or vehicle daily for 12 consecutive days. Each bar represents mean±SEM food consumption per mouse (n=6 mice per group) after 3, 6, 9 and 12 days of treatment.
Each value represents mean±SEM change in body weight for a group of 6 mice.
Mice were injected with leptin-related synthetic peptide (1 mg/g body weight, ip) or vehicle for 12 consecutive days. Each bar and vertical line represents mean±food consumption per mouse (n=6 mice per group) after 3, 6, 9 and 12 days of treatment.

[3] = Truncated and D-amino acid-substituted analogs: body weight, food and water intake in female C57BL/6J ob/ob mice, 7 days; conditions: for Cumulative food intake g/mouse3 g/mouse3 / Decrease(%) of cumulative food intake / Cumulative water intake / Cumulative food intake / Heavier (+) or lighter (−) than initial weight / Weight gain (+) or loss (−): 1 mg/day ip; for Decrease(%) of cumulative food intake / Increase (+) or decrease (−) of cumulative water intake / Increase (+) or decrease (−) of cumulative food intake: vs vehicle; for Food intake relative to OB3: truncated analogs; for Cumulative food intake / Heavier (+) or lighter (−) than initial weight / Weight gain (+) or loss (−) / Increase (+) or decrease (−) of cumulative food intake: D-analog series
Description: A. Housing: 6–8-week old homozygous female obese (ob/ob) and wild type (+1+) mice (C57BL/6J, Jackson Laboratory, Bar Harbor, Maine) were maintained in a temperature-controlled room (24° C.) in the Albany Medical College Animal Resources Facility under alternating 12-h light and dark periods (lights on 0700–1900 h). The animals were housed three per cage, and allowed food and water ad libitum for six days following their arrival.
Food and water remaining after 24 h was measured to the nearest 0.1 g and 0.1 ml, respectively, and the average amount consumed per mouse was calculated (mean±SEM, n=6). The mice were weighed once daily between 0900 and 1100 h on an Acculab V-333 electronic balance (Cole-Parmer, Vernon Hills, Ill.)
C. […] Control mice received 0.2 ml PBS (ip) only.
Female C7BL/6J ob/ob mice were given a single ip injection of vehicle (PBS, pH 7.2), LEP-(116–130) or truncated peptide (1 mg/200 ul PBS) for seven consecutive days. Daily changes in body weight compared to pretreatment weights of vehicle-injected control and peptide-treated mice were analyzed.

[4] = Blood glucose in female C57BL/6J ob/ob mice (Example 11); conditions: 1 mg/day ip
Description: D. Measurement of blood glucose: Blood was drawn from the tail vein of each mouse 2 h before the onset of the dark period at the beginning of the study, and after 2, 4, and 6 days of peptide treatment. The blood was applied to a test strip, and glucose levels were measured with a Glucometer Elite (Bayer, Elkhart, Ind.) glucose monitor.

Substance | Cumulative food intake [1] | Percent heavier (+) or lighter (−) than initial weight [1] | Weight gain (+) or loss (−) [1] | Cumulative water intake ([3]; 7 days) | Cumulative food intake ([3]; 7 days) | Heavier (+) or lighter (−) than initial weight ([3]; 7 days) | Weight gain (+) or loss (−) ([3]; 7 days) | Food intake of D-analogs ([3]; 7 days) | Increase (+) or decrease (−) of cumulative water intake [3] | Increase (+) or decrease (−) of cumulative food intake [3] | Serum glucose level ([4]; Day 2) | Serum glucose level ([4]; Day 4) | Serum glucose level ([4]; Day 6) | also measured
A V P I Q K V Q D D T K T L I (AVPIQKVQDDTKTLI) [LEP(21–35)] | 39.1 ± 1.0 gm/mouse | +24.0% | +6.2 g | – | – | – | – | – | – | – | – | – | – | Body weight gain and food intake vs vehicle [2]: not significantly (i.e., P>0.05) different
D F I P G L H P I L S L S K M (DFIPGLHPILSLSKM) [LEP(61–75)] | 44.6 ± 2.3 gm/mouse | +24.0% | +5.9 g | – | – | – | – | – | – | – | – | – | – | –
R I N D I S H T Q S V S A K Q (RINDISHTQSVSAKQ) [LEP(41–55)] | 39.4 ± 1.5 gm/mouse | +27.6% | +5.9 g | – | – | – | – | – | – | – | – | – | – | Body weight gain and food intake vs vehicle [2]: not significantly (i.e., P>0.05) different
S L S K M D Q T L A V Y Q Q V (SLSKMDQTLAVYQQV) [LEP(71–85)] | 35.5 ± 1.1^b gm/mouse | +20.0% | +5.0 g | – | – | – | – | – | – | – | – | – | – | Food intake vs vehicle [1]: significantly (P=0.01) less than vehicle-injected control mice
S Q N V L Q I A N D L E N L R (SQNVLQIANDLENLR; not fully specified (N-terminus)) [LEP(91–105)] | 36.1 ± 0.7^b gm/mouse | +18.6% | +5.2 g | – | – | – | – | – | – | – | – | – | – | Food intake vs vehicle [1]: significantly (P=0.01) less than vehicle-injected control mice
SCSLPQ [LEP-(116–121)] | – | – | – | – | – | – | – | – | – | – | – | – | – | Cumulative food intake g/mouse3 g/mouse3 ([3]; 7 days): 41.6 ± 1.4 g/mouse; Decrease(%) of cumulative food intake ([3]; 7 days): 6.8%; Food intake less than vehicle-injected control mice ([3]; 7 days): 6.8%
SCSLPQTS [LEP-(116–123)] | – | – | – | – | – | – | – | – | – | – | – | – | – | Cumulative food intake g/mouse3 g/mouse3 ([3]; 7 days): 34.3 ± 10 g/mouse; Decrease(%) of cumulative food intake ([3]; 7 days): 23.3%; Food intake relative to OB3 ([3]; 7 days): equivalent to that of mice treated with OB3
SCSLPQTSG [LEP-(116–124)] | – | – | – | – | – | – | – | – | – | – | – | – | – | Cumulative food intake g/mouse3 g/mouse3 ([3]; 7 days): 34.6 ± 0.9 g/mouse; Decrease(%) of cumulative food intake ([3]; 7 days): 22.6%; Food intake relative to OB3 ([3]; 7 days): equivalent to that of mice treated with OB3
SCSL[dP]QT [[D-Pro-5]-OB3] | – | – | – | 32.2 ± 0.8^b ml/mouse | 36.0 ± 12^b g/mouse | +2.4% | +1.2 ± 0.13^b g | equivalent to that of mice receiving OB3 | −49.8% | −28.6% | 272.0 ± 22.2^b mg/dl | 213.0 ± 28.4^a mg/dl | 202.8 ± 31.4^a mg/dl | Water consumption relative to OB3 ([3]; 7 days): significantly less than that seen in mice receiving OB3
S[dC]SLPQT [[D-Cys-2]-OB3] | – | – | – | 62.7 ± 1.7 ml/mouse | 47.6 ± 0.8 g/mouse | +12.8% | +4.8 ± 0.11 g | reduced food intake when compared to vehicle-injected control mice, but not to the level seen in mice receiving OB3 | −2.3% | −5.6% | 298.0 ± 27.9 mg/dL | 403.0 ± 41.1 mg/dL | 346.2 ± 31.7 mg/dL | –
Ser-Cys-Ser-Leu-Pro (SCSLP; printed: Ser-Cys-Ser-Leu-Pro) [LEP-(116–120)] | – | – | – | – | – | – | – | – | – | – | – | – | – | Cumulative food intake g/mouse3 g/mouse3 ([3]; 7 days): 42.4 ± 1.2 g/mouse; Decrease(%) of cumulative food intake ([3]; 7 days): 6.2%; Food intake less than vehicle-injected control mice ([3]; 7 days): 6.2%; Body weight gain and food intake vs vehicle [2]: did not approximate the activity observed with LEP(116–130)
Ser-Cys-Ser-Leu-Pro-Gln-[D-Thr] (SCSLPQ[dT]; not fully specified; printed as Ser-Cys-Ser-Leu-Pro-Gln-[D-Thr]) [[D-Thr-7]-OB3] | – | – | – | 68.3 ± 2.7 ml/mouse | 56.1 ± 0.6 g/mouse | +10.6% | +4.6 ± 0.34 g | slight increase in food consumption | +6.4% | +11.3% | 384.2 ± 18.1 mg/dL | 405.5 ± 16.0 mg/dL | 375.7 ± 17.8 mg/dL | –
Ser-Cys-Ser-Leu-Pro-[D-Gln]-Thr (SCSLP[dQ]T) [[D-Gln-6]-OB3] | – | – | – | 57.1 ± 1.0 ml/mouse | 43.5 ± 0.9 g/mouse | +4.6% | +2.1 ± 0.14 g | reduced food intake when compared to vehicle-injected control mice, but not to the level seen in mice receiving OB3 | −11.1% | −13.7% | 394.0 ± 45.4 mg/dL | 354.5 ± 17.3 mg/dL | 358.0 ± 28.1 mg/dL | –
Ser-Cys-[D-Ser]-Leu-Pro-Gln-Thr (SC[dS]LPQT) [[D-Ser-3]-OB3] | – | – | – | 53.2 ± 1.1 ml/mouse | 45.9 ± 0.6 g/mouse | +13.2% | +4.7 ± 0.67 g | reduced food intake when compared to vehicle-injected control mice, but not to the level seen in mice receiving OB3 | −17.1% | −8.9% | 385.0 ± 10.0 mg/dL | 337.0 ± 43.6 mg/dL | 348.2 ± 14.0 mg/dL | –
T K T L I K T I V T R I N D I (TKTLIKTIVTRINDI) [LEP(31–45)] | 39.5 ± 0.6 gm/mouse | +26.6% | +6.6 g | – | – | – | – | – | – | – | – | – | – | Body weight gain and food intake vs vehicle [2]: not significantly (i.e., P>0.05) different
V S A K Q R V T G L D F I P G (VSAKQRVTGLDFIPG; not fully specified) [LEP(51–65)] | 40.7 ± 0.6 gm/mouse | +25.0% | +6.4 g | – | – | – | – | – | – | – | – | – | – | Body weight gain and food intake vs vehicle [2]: not significantly (i.e., P>0.05) different
V Y Q Q V L T S L P S Q N V L (VYQQVLTSLPSQNVL) [LEP(81–95)] | 39.5 ± 1.1 gm/mouse | +26.0% | +6.2 g | – | – | – | – | – | – | – | – | – | – | –
[D-Ser]-Cys-Ser-Leu-Pro-Gln-Thr ([dS]CSLPQT) [[D-Ser-1]-OB3] | – | – | – | 58.0 ± 1.8 ml/mouse | 44.4 ± 1.4 g/mouse | +4.6% | +3.3 ± 0.18 g | reduced food intake when compared to vehicle-injected control mice, but not to the level seen in mice receiving OB3 | −9.7% | −11.9% | 356.0 ± 21.2 mg/dL | 360.1 ± 25.1 mg/dL | 287.0 ± 24.4 mg/dL | –
[D-Ser][D-Cys][D-Ser][D-Leu][D-Pro][D-Gln][D-Thr] [[D]-OB3] | – | – | – | 67.5 ± 2.2 ml/mouse | 52.7 ± 1.0 g/mouse | +10.0% | +4.0 ± 0.36 g | slight increase in food consumption | +5.1% | +4.6% | 325.7 ± 31.5 mg/dL | 405.5 ± 35.8 mg/dL | 401.8 ± 25.0 mg/dL | –
